Test results from patent publication US9796672B2, “Isoindoline compositions and methods for treating neurodegenerative disease” (Cognition Therapeutics, Inc., priority 2014, dated 2017).
“Also recorded” adds a separate entry of the source.

Key:
[1] = tested on: Abeta oligomer-induced membrane trafficking deficits in primary hippocampal neurons; assay: Membrane trafficking/exocytosis (MTT) assay; settings: read-out: Membrane Trafficking EC50; compound dosed prior to Abeta oligomer addition
Description: Primary hippocampal neurons from E18 Sprague-Dawley rat embryos were plated at optimized concentrations in 384 well plates in NB media (Invitrogen). Neurons were maintained in cultures for 3 weeks, with twice weekly feeding of NB media with N2 supplement (Invitrogen).
MTT reagent (3-(4,5-dimethylthizaol-2yl)-2,5diphenyl tetrazolium bromide) (Roche Molecular Biochemicals) was reconstituted in phosphate buffered saline to 5 mg/mL. 10 μL of MTT labeling reagent is added to each well and incubated at 37° C. for 1 h, then imaged. Exocytosis was assessed by automated microscopy and image processing to quantify the amount of endocytosed and exocytosed formazan.
Each assay plate was formatted so that compounds are tested with and without Abeta oligomer on each plate. […] Reduced formazan was first visible in intracellular vesicles. […] The dye precipitated in the aqueous environment of the culture and formed needle-shaped crystals on the surface of the neuron.

potassium channel hERG = potassium channel hERG (Homo sapiens (Human), UniProt Q12809); assay: In vitro toxicity, hERG inhibition; format: biochemical
Description: In vitro toxicity for Test Compounds is tested in a number of standard assays.

[2] = Mouse liver microsome (MLM) stability; format: in vitro ADME
Description: A first pharmacokinetic study was performed in microsomes of mice mouse liver microsomes, MLM) by a commercial contract research organization. The studies were performed according to Obach, R. S et al. (1997) J. Pharmacol. Exp. Ther., 283: 46-58, which is incorporated herein by reference.

neuronal cultures = assay: Functional neuronal phenotype in neuronal cultures; format: cell-based; parameters: key: Antagonist: antagonists (block Abeta signaling); Agonist: agonists (block Abeta signaling with U-shaped dose-response curve and toxicity at high doses); Inactive: inactive (no effect in neuronal cultures)
Description: Neuronal cultures are treated with various concentrations of sigma compounds for 24 hours and nuclear intensity compared to vehicle is measured.

Sigma-1 receptor = Sigma-1 receptor competitive radioligand binding assay; settings: read-out: Sigma-1 Receptor Affinity, Ki
Description: Radioligand binding assays for Sigma-1 receptors and Sigma-2 receptors were carried out by a commercial contract research organization. For Sigma-1 binding, various concentrations of test compounds from 100 μM to 1 nM were used to displace 8 nM [^3H](+)pentazocine from endogenous receptors on Jurkat cell membranes (Ganapathy M E et al. 1991, J Pharmacol. Exp. Ther. 289:251-260). 10 μM Haloperidol was used to define non-specific binding. […] 10 μM Haloperidol was used to define non-specific binding. Reactions were terminated by rapid filtration through Whatman GF/C filters using a Brandel 12R cell harvester followed by two washes with ice-cold buffer. Radioactivity on the dried filter discs was measured using a liquid scintillation analyzer (Tri-Carb 2900TR; PerkinElmer Life and Analytical Sciences). The displacement curves were plotted and the Ki values of the test ligands for the receptor subtypes were determined using GraphPad Prism (GraphPad Software Inc., San Diego, Calif.). The percentage specific binding was determined by dividing the difference between total bound (disintegrations per minute) and nonspecific bound (disintegrations per minute) by the total bound (disintegrations per minute).

Sigma-2 receptor = Sigma-2 receptor competitive radioligand binding assay; parameters: species or system rat; settings: read-out: Sigma-2 Receptor Affinity, Ki
Description: Radioligand binding assays for Sigma-1 receptors and Sigma-2 receptors were carried out by a commercial contract research organization. For Sigma-1 binding, various concentrations of test compounds from 100 μM to 1 nM were used to displace 8 nM [^3H](+)pentazocine from endogenous receptors on Jurkat cell membranes (Ganapathy M E et al. 1991, J Pharmacol. Exp. Ther. 289:251-260). 10 μM Haloperidol was used to define non-specific binding. For Sigma-2 receptors various concentrations of test compounds from 100 μM to 1 nM were used to displace 5 nM [^3H] […] (Bowen W D, et al. 1993, Mol. Neuropharmcol 3:117-126). 10 μM Haloperidol was used to define non-specific binding. Reactions were terminated by rapid filtration through Whatman GF/C filters using a Brandel 12R cell harvester followed by two washes with ice-cold buffer. Radioactivity on the dried filter discs was measured using a liquid scintillation analyzer (Tri-Carb 2900TR; PerkinElmer Life and Analytical Sciences). The displacement curves were plotted and the Ki values of the test ligands for the receptor subtypes were determined using GraphPad Prism (GraphPad Software Inc., San Diego, Calif.). The percentage specific binding was determined by dividing the difference between total bound (disintegrations per minute) and nonspecific bound (disintegrations per minute) by the total bound (disintegrations per minute).
The affinity of candidate sigma-2 ligand compounds at sigma-1 and sigma-2 receptors was also determined by displacement of different known labeled sigma-2 or sigma-1 ligands. Filtration assays were conducted according the previously published procedure (Xu, et al., 2005). Test compounds were dissolved in N,N-Dimethylformamide (DMF), dimethyl sulfoxide (DMSO) or ethanol and then diluted in 50 mM Tris-HCl pH 7.4 buffer containing 150 mM NaCl and 100 mM EDTA. Membrane homogenates were made from guinea pig brain for sigma-1 binding assay and rat liver for sigma-2 binding assay. Membrane homogenates were diluted with 50 mM Tris-HCl buffer, pH 8.0 and incubated at 25° C. in a total volume of 150 uL in 96 well plates with the radioligand and test compounds with concentrations ranging from 0.1 nM to 10 uM. After incubation was completed, the reactions were terminated by the addition of 150 uL of ice-cold wash buffer (10 mM Tris HCl, 150 mM NaCl, pH 7.4) using a 96 channel transfer pipette (Fisher Scientific, Pittsburgh, Pa.) and the samples harvested and filtered rapidly through 96 well fiber glass filter plate (Millipore, Billerica, Mass.) that had been presoaked with 100 uL of 50 mM Tris-HCl buffer. Each filter was washed four times with 200 uL of ice-cold wash buffer (10 mM Tris-HCl, 150 mM NaCl, pH 7.4). A Wallac 1450 MicroBeta liquid scintillation counter (Perkin Elmer, Boston, Mass.) was used to quantitate the bound radioactivity.
Nonspecific binding was determined from samples that contained 10 uM of cold haloperidol.
The binding affinity, Ki values was calculated using the method of Cheng and Prusoff.

potassium channel hERG, sequence (Q12809 whole entry): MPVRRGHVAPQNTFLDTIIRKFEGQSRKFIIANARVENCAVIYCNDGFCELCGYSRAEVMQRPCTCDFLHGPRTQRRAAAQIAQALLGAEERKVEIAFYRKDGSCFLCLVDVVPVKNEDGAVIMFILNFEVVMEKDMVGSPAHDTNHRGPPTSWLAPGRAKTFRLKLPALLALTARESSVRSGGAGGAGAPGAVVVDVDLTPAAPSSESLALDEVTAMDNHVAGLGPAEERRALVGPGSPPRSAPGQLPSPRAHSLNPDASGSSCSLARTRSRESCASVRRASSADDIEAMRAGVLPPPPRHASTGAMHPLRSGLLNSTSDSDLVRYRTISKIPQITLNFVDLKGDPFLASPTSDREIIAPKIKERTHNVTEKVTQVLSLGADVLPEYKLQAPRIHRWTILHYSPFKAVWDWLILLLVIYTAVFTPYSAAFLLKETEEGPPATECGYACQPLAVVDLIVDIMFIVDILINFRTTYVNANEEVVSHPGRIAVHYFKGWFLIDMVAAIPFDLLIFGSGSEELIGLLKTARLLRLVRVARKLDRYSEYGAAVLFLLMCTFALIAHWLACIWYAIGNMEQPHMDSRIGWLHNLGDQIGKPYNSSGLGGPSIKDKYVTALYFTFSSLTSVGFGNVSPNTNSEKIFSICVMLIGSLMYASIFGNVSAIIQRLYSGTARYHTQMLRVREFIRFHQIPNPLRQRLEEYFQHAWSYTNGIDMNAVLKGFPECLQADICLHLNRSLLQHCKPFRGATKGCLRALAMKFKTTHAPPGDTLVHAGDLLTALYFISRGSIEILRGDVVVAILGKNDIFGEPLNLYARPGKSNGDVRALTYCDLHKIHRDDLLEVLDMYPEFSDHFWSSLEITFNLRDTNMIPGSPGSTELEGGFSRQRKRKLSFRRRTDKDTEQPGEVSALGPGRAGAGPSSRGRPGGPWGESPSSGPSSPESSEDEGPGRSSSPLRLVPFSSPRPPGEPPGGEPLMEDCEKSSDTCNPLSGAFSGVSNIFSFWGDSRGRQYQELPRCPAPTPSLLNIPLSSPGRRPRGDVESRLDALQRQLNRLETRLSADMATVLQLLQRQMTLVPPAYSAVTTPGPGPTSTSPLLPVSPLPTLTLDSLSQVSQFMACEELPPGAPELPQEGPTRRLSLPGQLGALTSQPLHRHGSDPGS

SMILES	EC50 [1] [nM]	IC50 (potassium channel hERG) [nM]	Mouse liver microsomes, MLM t½ ([2]; mouse, microsomes) [min]	neuronal phenotype (neuronal cultures)	Ki (Sigma-1 receptor) [nM]	Ki (Sigma-2 receptor) [nM]	Mouse liver microsomes, MLM t½ ([2]; mouse liver microsomes) [min]
Cc1ccc2c(c1)CN([C@H](C)CCc1ccc(Cl)c(Cl)c1)C2 [compound 13]	300	250	3	Antagonist			
CC(C)COc1cc(CCC(C)(C)N2Cc3cccc(C(=O)N4CCN(C)CC4)c3C2)ccc1O [compound 91]			6				
COc1cc(CCC(C)N2Cc3ccc4ccccc4c3C2)ccc1O.Cl (stereo not drawn) [compound 17]	300		10	Antagonist			
C[C@H](CCc1ccc(Cl)c(Cl)c1)N1Cc2cccc(Cl)c2C1.Cl [compound 16]	> 20000		12	Inactive			
C[C@H](CCc1ccc(OC(=O)N(C)C)c(OC(F)(F)F)c1)N1Cc2cccc(F)c2C1 [compound 41]	> 20000		9	Inactive/	520		
COc1cc(CCC(C)(C)N2Cc3ccc(N4CCNCC4)cc3C2)ccc1O [compound 111]	100000		27.01	Inactive		740	
COc1ccc(CCC(C)(C)N2Cc3ccc(S(C)(=O)=O)cc3C2)cc1 [compound 102]	100000		20.35	Inactive		1.8	
COc1cccc(CCC(C)(C)N2Cc3cccc(C(=O)N4CCNCC4)c3C2)c1 [compound 98]	350		29.35	Antagonist/; also recorded: Neuroactive		10000	
COc1cc(CC[C@@H](C)N2Cc3ccc(C(F)(F)F)cc3C2)ccc1O [compound 2]	6700 to 7700		28	Antagonist			
COc1ccc(CCC(C)(C)N2Cc3ccc(S(C)(=O)=O)cc3C2)cc1OC [compound 101]	100000		84.21	Inactive		11	
CC(C)(CCc1ccc(Cl)c(Cl)c1)N1Cc2ccc(N3CCNCC3)cc2C1 [compound 108]	100000		1236.31	Inactive		15	
COc1cc(CCC(C)(C)N2Cc3cccc(F)c3C2)ccc1Cl [compound 112]	260			Antagonist			
COc1cc(CC[C@@H](C)N2Cc3cccc(F)c3C2)ccc1O [compound 8]	250 to 400		16	Antagonist	41		
COc1ccc2c(c1)CN([C@H](C)CCc1ccc(Cl)c(Cl)c1)C2.Cl [compound 15]	500		15	Inactive			
CC(CCc1ccc(Cl)c(Cl)c1)N1Cc2ccc3ccccc3c2C1 (stereo not drawn) [compound 19]				Antagonist			
COc1cc(CCC(C)(C)N2Cc3ccc(S(C)(=O)=O)cc3C2)ccc1O [compound 77]	100		142	Antagonist			
CC(C)COc1cc(CCC(C)(C)N2Cc3cccc(C(=O)N(C)C)c3C2)ccc1O [compound 89]			17				
CC(C)COc1cc(CCC(C)(C)N2Cc3cccc(C(=O)N4CCOCC4)c3C2)ccc1O [compound 90]			9				
CC(=O)Oc1ccc(CCC(C)(C)N2Cc3ccc(S(C)(=O)=O)cc3C2)cc1OC(C)(C)C [compound 96]	100000		<1.75	Inactive		6.6	
COc1ccc(CCC(C)(C)N2Cc3cccc(C(=O)N4CCNCC4)c3C2)cc1OC [compound 100]	1100		156.24	Antagonist		10000	
C[C@H](CCc1ccc(Cl)c(Cl)c1)N1Cc2cc(Cl)c(Cl)cc2C1 [compound 5]	> 20000		53	Inactive	56	2.7	
CC(C)(CCc1ccc(O)c(OC(F)(F)F)c1)N1Cc2cccc(C(=O)N3CCOCC3)c2C1 [compound 94]			14				
COc1cccc(CCC(C)(C)N2Cc3ccc(S(C)(=O)=O)cc3C2)c1 [compound 103]	100000		15.2	Inactive		1.4	
COc1cc2c(cc1OC)CN(C(C)(C)CCc1ccc(F)cc1)C2 [compound 34]	13000		46	Antagonist	7.5		

SMILES	EC50 [1] [nM]	IC50 (potassium channel hERG) [nM]	Mouse liver microsomes, MLM t½ ([2]; mouse, microsomes) [min]	neuronal phenotype (neuronal cultures)	Ki (Sigma-1 receptor) [nM]	Ki (Sigma-2 receptor) [nM]	Mouse liver microsomes, MLM t½ ([2]; mouse liver microsomes) [min]
CC(=O)N1CCN(C(=O)c2cccc3c2CN(C(C)(C)CCc2ccc(O)c(OCC(C)C)c2)C3)CC1 [compound 92]			7				
CC(C)(C#Cc1ccc2[nH]ncc2c1)N1Cc2ccc(S(C)(=O)=O)cc2C1 [compound 110]	100000		15.66	Inactive		10000	
CC(C)(CCc1ccc2[nH]ncc2c1)N1Cc2cccc(C(=O)N3CCNCC3)c2C1 [compound 115]	100000			Inactive			
CC(C)(CCc1ccc(O)c(Cl)c1)N1Cc2cccc(F)c2C1 [compound 117]	1200			Antagonist			
COc1cc(CCC(C)(C)N2Cc3cc4c(cc3C2)OCO4)ccc1OCCO [compound 47]			91	Inactive	1000		
COc1cc(CC[C@@H](C)N2Cc3cc(Cl)c(Cl)cc3C2)ccc1O [compound 3]	3800		21	Neuroactive	23	240	
CC(C)(CCc1ccc(Cl)cc1)N1Cc2cccc(C(=O)N3CCNCC3)c2C1 [compound 105]	2600		106.23	Neuroactive		180	
CC(C)(C#Cc1ccc2[nH]ncc2c1)N1Cc2cccc(C(=O)N3CCNCC3)c2C1 [compound 114]	250			Neuroactive			
COc1ccc(CCC(C)(C)N2Cc3cccc(C(=O)N4CCNCC4)c3C2)cc1 [compound 99]	200		93.3	Antagonist/; also recorded: Neuroactive		1200	
COc1cccc(CCC(C)(C)n2cc3ccc(S(C)(=O)=O)cc3c2)c1 [compound 104]	100000			Inactive		760	
C[C@H](CCc1ccc(O)c(OC(C)(C)C)c1)N1Cc2cccc(F)c2C1 [60B]	1600		8	Antagonist			
CC(C)(C)Oc1cc(CCC(C)(C)n2cc3ccc(S(C)(=O)=O)cc3c2)ccc1O [compound 95]	1700			Antagonist		100	
COc1cc(CCC(C)(C)N2Cc3ccc(S(C)(=O)=O)cc3C2)ccc1Cl [compound 113]	5300			Antagonist			
COc1ccc(CCC(C)(C)N2Cc3cccc(C(=O)N4CCNCC4)c3C2)cc1Cl [compound 118]	100000			Inactive			
COc1cc(CC[C@@H](C)N2Cc3cc(OC)c(OC)cc3C2)ccc1O [compound 7]					42	68	155
CC(C)(CCc1ccc(F)cc1)N1Cc2cccc(F)c2C1 [compound 33]	3300		9	Antagonist			
C[C@H](CCc1ccc(Cl)c(Cl)c1)N1Cc2ccc(C(F)(F)F)cc2C1 [compound 4]	> 20000		40	Inactive	33	2.2	
CC(C)(CCc1ccc(O)c(Cl)c1)N1Cc2ccc(S(C)(=O)=O)cc2C1 [compound 116]	100000			Inactive			
CN1CCN(C(=O)c2cccc3c2CN(C(C)(C)CCc2ccc(O)c(OC(F)(F)F)c2)C3)CC1 [compound 93]			5				
CC(C)(CCc1ccc(Cl)c(Cl)c1)N1Cc2cccc(C(=O)N3CCNCC3)c2C1 [compound 106]	3400		160.43	Agonist		240	
CC(C)(CCc1ccc(Cl)c(Cl)c1)N1Cc2cccc(N3CCNCC3)c2C1 [compound 109]	100000		253.79	Agonist		31	
COc1cc(CC[C@@H](C)N2Cc3ccc(S(C)(=O)=O)cc3C2)ccc1O [compound 68]			152	Inactive	100		
C[C@H](CCc1ccc(Cl)c(Cl)c1)N1Cc2ccc(F)cc2C1.Cl [compound 12]	400		13	Antagonist			
COc1cc(CCC(C)(C)N2Cc3cccc(N4CCNCC4)c3C2)ccc1O [compound 107]	100000		25.21	Inactive		10000	
